Measured values as given in patent US20150216177A1, “METHOD FOR SELECTIVELY INHIBITING SULFATE-REDUCING BACTERIUM, GYPSUM COMPOSITION CAPABLE OF INHIBITING PROLIFERATION OF SULFATE-REDUCING BACTERIUM BY SAID METHOD, GYPSUM-TYPE SOLIDIFYING MATERIAL, AND GYPSUM-TYPE BUILDING MATERIAL” (priority 2012, published 2015).

What was measured:
Type in all cases: cell-based
[1] = system: Colon bacillus: Escherichia coli NBRC 102203T; experiment: Proliferation-inhibiting (bacteriostatic) effect in Al-added culture medium, protein amount by BCA method; details: 2 mM or 20 mM Al solution in culture medium, anaerobic shaking culture 37° C.; FIG. 2 / FIG. 5
[2] = system: Sulfate-reducing bacterium: Desulfovibrio vulgaris DSM 644T
[3] = system: Butyric acid bacterium: Clostridium butyricum NBRC 13949T; details: 2 mM or 20 mM Al solution in culture medium, anaerobic shaking culture 37° C.; FIG. 3 / FIG. 6

Compound	proliferation of the colon bacillus (increase in protein amount) [1]	proliferation of the sulfate-reducing bacterium (increase in protein amount) [2]	proliferation of the butyric acid bacterium (increase in protein amount) [3]	selective bacteriostatic effect (sulfate-reducing bacterium versus colon bacillus and butyric acid bacterium) [2]
[Cl][Al]([Cl])[Cl] [Comparative Example 1, AlCl3, reference compound]	inhibited	inhibited	inhibited	–
EDTA/Al chelate [Example 3]	–	–	–	same selective bacteriostatic effects as in Example 1 were also recognized
citric acid/Al chelate [Example 1]	not inhibited	inhibited	not inhibited	selective bacteriostatic effect was recognized
oxalic acid/Al chelate [Example 2]	–	–	–	same selective bacteriostatic effects as in Example 1 were also recognized
